Laboratory results taken from PMC2939023, “Attenuated T Cell Responses to a High-Potency Ligand In Vivo” (PLoS Biology, 2010).
“Also recorded” adds a separate entry of the source. Where no end group is shown, it is not given here.

Experiments:
5C.C7 T cells = assay: In vivo antigen persistence (division of later transferred 5C.C7 T cells); parameters: species or system mouse; settings: peptide injected 4, 2, 1, 0 wk before transfer; division at 48 h; in words
Description: We addressed potential differential in vivo antigen persistence by injecting MCC or K5 peptide at various times prior to transfer of CFSE-labeled 5C.C7 T cells (Figure S7). In this experiment, the extent of division of the transferred T cells serves as a readout of amount of antigen present. […] We then considered the possibility that the blunted responses were occurring because the amount of K5 pMHC complexes was limiting in vivo. In order to directly examine the stimulatory function of in vivo–pulsed APCs, we used irradiated splenic DCs isolated from mice immunized with the different peptides to activate naïve 5C.C7 T cells in vitro, without the addition of exogenous peptide (Figure 2B,C).
Supplementary file pbio.1000481.s007.eps: Figure S7 MCC and K5 peptides persist equally in vivo. B10.A mice were immunized with the indicated peptides at 4, 2, 1, and 0 wk before adoptive transfer of CFSE-labeled 5C.C7 T cells. 5C.C7 T cell division was analyzed at 48 h after transfer as a measure of peptide antigen persistence over time. All histograms are gated on CD4^+CD45.1^+ 5C.C7 T cells. Data shown are representative of two mice per condition and two experiments. (0.99 MB EPS) Click here for additional data file.

[1] = test system: 5C.C7 RAG2−/− lymphocytes; type: cell-based, mouse; settings: 3 h
Experimental: Cells were cultured in a 37°C humidified chamber with 5% C0_2 in complete RPMI1640 (supplemented with 10% FCS, […], 100 U/mL penicillin and streptomycin, 2 µM 2-mercaptoethanol). Single-cell suspensions were prepared from lymph nodes harvested from 5C.C7 RAG2-deficient mice (routinely >90% Vα11+Vβ3+ by flow cytometry) and stimulated in triplicate in 96-well round-bottom plates with irradiated (2,000 rad) B10.A splenocytes and the indicated peptides for 60 h. Proliferation was monitored by the addition of ^3H-methyl-thymidine (1 µCi/well). Cells were harvested onto glass-fiber filters using a Tomtec harvester, and filters were counted using a MicroBeta scintillation counter (Perkin-Elmer).

OT-1 TCR = OT-1 TCR ligands, Listeria monocytogenes; in words; ref [25]; cited from earlier work
Description: The reason we observed attenuation at the high end of the ligand potency spectrum may be because we were able to examine T cell responses to a superagonist peptide, which possibly exceeds a ligand potency threshold at which T cell attenuation is observed. Attempts to find other strong 5C.C7 TCR ligands, which would facilitate examination o ...

Sequence	In vivo peptide antigen persistence (5C.C7 T cells)	EC50 [1] [nM]	Potency of T cell responses in vitro and in vivo (OT-1 TCR)
ANERADLIAYLKQATK [MCC, moth cytochrome c (MCC) peptide]	persist equally and for a few weeks in vivo	37.8	–
ANERADLIAYLKQASK [102S]	–	160	–
ANERADLIAYFKAATKF [K5]	persist equally and for a few weeks in vivo	17.5	–
SIINFEKL [natural OT-1 TCR ligand]	–	–	induced the most robust response; also recorded: exhibited the most potent responses in vitro and in vivo
ANERADLIAYPKAATKF [K3]	–	24.9	–
